According to article PMC11788587, “Validating Low‐Dose Iohexol as a Marker for Glomerular Filtration Rate by In Vitro and In Vivo Studies” (Clinical and Translational Science, 2025):

Legend:
[1] = set-up: method as in PMID 32989831, PMID 30449032; conditions: cited from earlier work
[2] = cited from earlier work
hMATE1 = target: T1, hMATE1 (Homo sapiens, UniProt Q96FL8); experiment: Inhibition of hMATE1-mediated MPP+ uptake, stably transfected 293 cells; assay type: cell-based; conditions: substrate 3 µM MPP+, median (95% CI)
T1 construct: expressed in transfected cells; host or cells: HEK-293 (293) cells, pEBTetD plasmid, doxycycline-induced
T1 sequence (Q96FL8 1-570): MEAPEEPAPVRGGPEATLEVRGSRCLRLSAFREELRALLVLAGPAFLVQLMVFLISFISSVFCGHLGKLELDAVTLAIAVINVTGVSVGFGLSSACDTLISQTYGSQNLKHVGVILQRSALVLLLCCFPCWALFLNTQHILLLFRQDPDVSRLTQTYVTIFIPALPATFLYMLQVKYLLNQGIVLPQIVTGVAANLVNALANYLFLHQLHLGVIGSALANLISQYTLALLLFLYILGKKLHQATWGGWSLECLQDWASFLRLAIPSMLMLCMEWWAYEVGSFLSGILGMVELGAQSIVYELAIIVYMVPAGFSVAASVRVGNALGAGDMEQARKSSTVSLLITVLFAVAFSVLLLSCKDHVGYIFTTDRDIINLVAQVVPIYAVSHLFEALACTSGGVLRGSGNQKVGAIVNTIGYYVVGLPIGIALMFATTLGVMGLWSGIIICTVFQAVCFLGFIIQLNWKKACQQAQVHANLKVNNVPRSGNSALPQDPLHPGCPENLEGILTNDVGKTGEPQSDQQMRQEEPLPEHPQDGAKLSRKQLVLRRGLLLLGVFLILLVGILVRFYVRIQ
Description: We characterized the inhibitory potential of iohexol on major drug transporters recommended by regulatory agencies, which were previously assessed in a clinical transporter phenotyping cocktail study. These transporters include hOAT1, hOAT3, hOCT1, hOCT2, hMATE1, hMATE2K, human organic anion transporter polypeptides (hOATP)1B1, hOATP1B3, and human multidrug resistance protein (hMDR)1. Additionally, we investigated whether iohexol is a substrate for any of the renal transporters among these, including hOAT1/3, hOCT1/2, and hMATE1/2K. Cell‐based uptake assays were used to assess the activities of hOAT1/3, hOCT1/2, hMATE1/2K, and hOATP1B1/1B3. Inside‐out membrane vesicle uptake assays were used to evaluate the activity of hMDR1.
To determine the maximal inhibitory potential of iohexol, intracellular accumulation of a standard substrate was measured with and without the clinically relevant highest concentrations of iohexol. Control inhibitors were tested in each experiment.
In all subsequent in vitro studies, control experiments were conducted to validate the results. These included positive controls for substrates and inhibitors, as well as cells either without transporter expression or transfected with an empty vector, and control vesicles. Each condition, including cells or vesicles with the transporter and their respective controls, was analyzed in at least three replicates. For detailed information on materials, methods, and data analysis techniques used, refer to the Supporting Information. […]
R version 4.2.1 (R Foundation for Statistical Computing, Vienna, Austria) was used for statistical evaluations and data visualization. The data analysis approach for the in vitro study was detailed by Hsin CH et al..^1 In brief, for transport assays, the initial uptake rate was calculated by normalizing the substrate concentration to both the protein concentration and the incubation time for each dish or well. The transporter-mediated uptake rate (net uptake) was determined by performing an element-wise subtraction of uptake rates from different conditions. […]

CC(=O)N(CC(O)CO)c1c(I)c(C(=O)NCC(O)CO)c(I)c(C(=O)NCC(O)CO)c1I (stereo not drawn) [iohexol]
Iohexol clearance under OCT2 and MATE inhibitors [1]: unaffected
Volume of distribution, previous three-compartment model estimate (median) [2]: 15.09 L
Cmax ([2]; following a 3235 mg iohexol injection, patients aged ≥ 70 years, median GFR 60.7 mL/min/1.73 m^2, read-out: Cmax (initial plasma concentration)): ~370 µM
Inhibitory effect (% reduction of specific activity) (hMATE1; 20 mM iohexol): no notable inhibitory effects
inhibition at 1000 µM (hMATE1; HEK293, 1 mM iohexol, read-out: Inhibitory effect (% reduction of specific activity)): 5.4%
inhibition at 20000 µM (hMATE1; HEK293, 20 mM iohexol, read-out: Inhibitory effect (% reduction of specific activity)): 12%
